# Data taken from US20240208992A1, “MACROCYCLES AS CFTR MODULATORS” (Idorsia Pharmaceuticals Ltd, priority 2021, published 2024).
# Biological target: human F508del-CFTR (Homo sapiens, UniProt P13569, DEL508-508)
# Assay: F508del-CFTR cell surface expression (corrector activity), DiscoveRx ß-galactosidase complementation chemiluminescence assay in recombinant U2OS cell line;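 also: U2OS cells co-expressing ProLink-tagged F508del-CFTR and a membrane-anchored enzyme acceptor, where more surface CFTR restores β-galactosidase activity measured by chemiluminescence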
# Conditions: U2OS cell line, 16h compound incubation; for EC50: EC50, F508del-CFTR cell surface expression, geomean values; for Emax: in relation to the Emax of the corrector lumacaftor (=100%), arithmetic mean values
# Chain of human F508del-CFTR (P13569 with tags, fused parts or gaps DEL508-508): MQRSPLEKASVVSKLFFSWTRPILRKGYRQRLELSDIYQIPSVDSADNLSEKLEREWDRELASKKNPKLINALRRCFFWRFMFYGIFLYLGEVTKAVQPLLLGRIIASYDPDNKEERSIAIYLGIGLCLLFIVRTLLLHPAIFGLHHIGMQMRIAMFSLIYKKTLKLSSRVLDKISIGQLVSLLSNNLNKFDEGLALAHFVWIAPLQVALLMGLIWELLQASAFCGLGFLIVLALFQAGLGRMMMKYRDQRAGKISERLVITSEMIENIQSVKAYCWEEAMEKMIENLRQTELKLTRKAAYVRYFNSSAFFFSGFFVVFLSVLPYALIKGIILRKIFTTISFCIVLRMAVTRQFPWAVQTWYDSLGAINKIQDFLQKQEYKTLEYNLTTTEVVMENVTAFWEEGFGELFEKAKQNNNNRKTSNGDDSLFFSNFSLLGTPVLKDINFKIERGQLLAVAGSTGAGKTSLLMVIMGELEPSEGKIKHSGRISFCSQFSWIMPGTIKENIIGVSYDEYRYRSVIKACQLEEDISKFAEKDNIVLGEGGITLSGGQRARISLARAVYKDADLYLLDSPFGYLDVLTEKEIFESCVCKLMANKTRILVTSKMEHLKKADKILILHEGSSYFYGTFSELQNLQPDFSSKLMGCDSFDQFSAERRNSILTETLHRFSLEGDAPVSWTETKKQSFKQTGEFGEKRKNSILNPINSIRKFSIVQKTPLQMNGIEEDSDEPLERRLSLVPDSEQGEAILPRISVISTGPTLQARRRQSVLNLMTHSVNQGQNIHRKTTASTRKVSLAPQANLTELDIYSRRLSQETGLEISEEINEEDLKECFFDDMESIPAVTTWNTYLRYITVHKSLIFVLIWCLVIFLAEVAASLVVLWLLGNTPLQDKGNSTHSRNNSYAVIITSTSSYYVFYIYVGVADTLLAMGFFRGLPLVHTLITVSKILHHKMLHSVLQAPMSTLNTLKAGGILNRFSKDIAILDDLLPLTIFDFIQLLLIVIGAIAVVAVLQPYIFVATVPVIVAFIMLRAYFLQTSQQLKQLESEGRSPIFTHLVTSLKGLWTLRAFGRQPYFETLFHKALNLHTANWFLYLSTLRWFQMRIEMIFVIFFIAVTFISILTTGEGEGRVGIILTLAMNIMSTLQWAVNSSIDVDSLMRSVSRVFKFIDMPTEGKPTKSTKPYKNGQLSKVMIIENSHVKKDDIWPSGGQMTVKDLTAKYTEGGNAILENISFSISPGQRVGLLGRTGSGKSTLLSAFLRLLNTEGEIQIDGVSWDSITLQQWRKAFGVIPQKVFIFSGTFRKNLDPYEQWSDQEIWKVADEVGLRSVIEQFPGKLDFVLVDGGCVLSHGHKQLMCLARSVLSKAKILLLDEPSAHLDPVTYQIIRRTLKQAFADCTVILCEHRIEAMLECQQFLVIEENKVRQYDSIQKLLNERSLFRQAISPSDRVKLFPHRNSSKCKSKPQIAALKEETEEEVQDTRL
Structure (SMILES),EC50 [nM],Emax (U2OS) [%],Emax [%]
"CC(C)C[C@H]1C(=O)N2CCCC[C@@H]2C(=O)N[C@H](Cc2ccccc2)COc2cnc3ccccc3c2C(=O)N[C@H](C(=O)NCCc2nc(-c3ccccc3)no2)CC(=O)N1C [Example 76, (9S,13S,19aR,22R)-22-benzyl-13-isobutyl-12-methyl-7,11,14,20-tetraoxo-N-(2-(3-phenyl-1,2,4-oxadiazol-5-yl)ethyl)-7,8,9,10,11,12,13,14,17,18,19,19a,20,21,22,23-hexadecahydro-16H-pyrido[2′,1′:6,7][1]oxa[4,7,10,14]tetraazacycloheptadecino[17,16-c]quinoline-9-carboxamide]",196,283,
"CC(C)C[C@H]1C(=O)N2CCCC[C@@H]2C(=O)N[C@H](Cc2ccccc2)COc2cnc3ccccc3c2C(=O)N[C@H](C(=O)NCCc2ccccc2)CC(=O)N1C [Example 77, (9S,13S,19aR,22R)-22-benzyl-13-isobutyl-12-methyl-7,11,14,20-tetraoxo-N-phenethyl-7,8,9,10,11,12,13,14,17,18,19,19a,20,21,22,23-hexadecahydro-16H-pyrido[2′,1′:6,7][1]oxa[4,7,10,14]tetraazacycloheptadecino[17,16-c]quinoline-9-carboxamide]",231,237,
"Cc1nc(CCNC(=O)[C@@H]2CC(=O)N(C)[C@@H](CC(C)C)C(=O)N3CCCC[C@@H]3C(=O)N[C@H](Cc3ccccc3)COc3cnc4ccccc4c3C(=O)N2)no1 [Example 78, (9S,13S,19aR,22R)-22-benzyl-13-isobutyl-12-methyl-N-(2-(5-methyl-1,2,4-oxadiazol-3-yl)ethyl)-7,11,14,20-tetraoxo-7,8,9,10,11,12,13,14,17,18,19,19a,20,21,22,23-hexadecahydro-16H-pyrido[2′,1′:6,7][1]oxa[4,7,10,14]tetraazacycloheptadecino[17,16-c]quinoline-9-carboxamide]",544,277,
"CCc1nc(CCNC(=O)[C@@H]2CC(=O)N(C)[C@@H](CC(C)C)C(=O)N3CCCC[C@@H]3C(=O)N[C@H](Cc3ccccc3)COc3cnc4ccccc4c3C(=O)N2)no1 [Example 79, (9S,13S,19aR,22R)-22-benzyl-N-(2-(5-ethyl-1,2,4-oxadiazol-3-yl)ethyl)-13-isobutyl-12-methyl-7,11,14,20-tetraoxo-7,8,9,10,11,12,13,14,17,18,19,19a,20,21,22,23-hexadecahydro-16H-pyrido[2′,1′:6,7][1]oxa[4,7,10,14]tetraazacycloheptadecino[17,16-c]quinoline-9-carboxamide]",327,296,
"CC(C)C[C@H]1C(=O)N2CCCC[C@@H]2C(=O)N[C@H](Cc2ccccc2)COc2cnc3ccccc3c2C(=O)N[C@H](C(=O)NCCc2noc(C3CC3)n2)CC(=O)N1C [Example 80, (9S,13S,19aR,22R)-22-benzyl-N-(2-(5-cyclopropyl-1,2,4-oxadiazol-3-yl)ethyl)-13-isobutyl-12-methyl-7,11,14,20-tetraoxo-7,8,9,10,11,12,13,14,17,18,19,19a,20,21,22,23-hexadecahydro-16H-pyrido[2′,1′:6,7][1]oxa[4,7,10,14]tetraazacycloheptadecino[17,16-c]quinoline-9-carboxamide]",170,308,
"COc1cccc(CCNC(=O)[C@@H]2CC(=O)N(C)[C@@H](CC(C)C)C(=O)N3CCCC[C@@H]3C(=O)N[C@H](Cc3ccccc3)COc3cnc4ccccc4c3C(=O)N2)c1OC [Example 81, (9S,13S,19aR,22R)-22-benzyl-N-(2,3-dimethoxyphenethyl)-13-isobutyl-12-methyl-7,11,14,20-tetraoxo-7,8,9,10,11,12,13,14,17,18,19,19a,20,21,22,23-hexadecahydro-16H-pyrido[2′,11:6,7][1]oxa[4,7,10,14]tetraazacycloheptadecino[17,16-c]quinoline-9-carboxamide]",233,232,
"Cc1oncc1CCNC(=O)[C@@H]1CC(=O)N(C)[C@@H](CC(C)C)C(=O)N2CCCC[C@@H]2C(=O)N[C@H](Cc2ccccc2)COc2cnc3ccccc3c2C(=O)N1 [Example 82, (9S,13S,19aR,22R)-22-benzyl-13-isobutyl-12-methyl-N-(2-(5-methylisoxazol-4-yl)ethyl)-7,11,14,20-tetraoxo-7,8,9,10,11,12,13,14,17,18,19,19a,20,21,22,23-hexadecahydro-16H-pyrido[2′,1′:6,7][1]oxa[4,7,10,14]tetraazacycloheptadecino[17,16-c]quinoline-9-carboxamide]",598,246,
"CC(C)C[C@H]1C(=O)N2CCCC[C@@H]2C(=O)N[C@H](Cc2ccccc2)COc2cnc3ccccc3c2C(=O)N[C@H](C(=O)NCCc2cnn(C)c2)CC(=O)N1C [Example 83, (9S,13S,19aR,22R)-22-benzyl-13-isobutyl-12-methyl-N-(2-(1-methyl-1H-pyrazol-4-yl)ethyl)-7,11,14,20-tetraoxo-7,8,9,10,11,12,13,14,17,18,19,19a,20,21,22,23-hexadecahydro-16H-pyrido[2′,11:6,7][1]oxa[4,7,10,14]tetraazacycloheptadecino[17,16-c]quinoline-9-carboxamide]",731,309,
"COc1ccc(CCNC(=O)[C@@H]2CC(=O)N(C)[C@@H](CC(C)C)C(=O)N3CCCC[C@@H]3C(=O)N[C@H](Cc3ccccc3)COc3cnc4ccccc4c3C(=O)N2)cc1 [Example 84, (9S,13S,19aR,22R)-22-benzyl-13-isobutyl-N-(4-methoxyphenethyl)-12-methyl-7,11,14,20-tetraoxo-7,8,9,10,11,12,13,14,17,18,19,19a,20,21,22,23-hexadecahydro-16H-pyrido[2′,1′:6,7][1]oxa[4,7,10,14]tetraazacycloheptadecino[17,16-c]quinoline-9-carboxamide]",274,299,
"CC(C)C[C@H]1C(=O)N2CCCC[C@@H]2C(=O)N[C@H](Cc2ccccc2)COc2cnc3ccccc3c2C(=O)N[C@H](C(=O)NCCc2noc(C(C)(C)C)n2)CC(=O)N1C [Example 85, (9S,13S,19aR,22R)-22-benzyl-N-(2-(5-(tert-butyl)-1,2,4-oxadiazol-3-yl)ethyl)-13-isobutyl-12-methyl-7,11,14,20-tetraoxo-7,8,9,10,11,12,13,14,17,18,19,19a,20,21,22,23-hexadecahydro-16H-pyrido[2′,1′:6,7][1]oxa[4,7,10,14]tetraazacycloheptadecino[17,16-c]quinoline-9-carboxamide]",260,244,
"Cc1cc(C)cc(-c2noc(CCNC(=O)[C@@H]3CC(=O)N(C)[C@@H](CC(C)C)C(=O)N4CCCC[C@@H]4C(=O)N[C@H](Cc4ccccc4)COc4cnc5ccccc5c4C(=O)N3)n2)c1 [Example 86, (9S,13S,19aR,22R)-22-benzyl-N-(2-(3-(3,5-dimethylphenyl)-1,2,4-oxadiazol-5-yl)ethyl)-13-isobutyl-12-methyl-7,11,14,20-tetraoxo-7,8,9,10,11,12,13,14,17,18,19,19a,20,21,22,23-hexadecahydro-16H-pyrido[2′,1′:6,7][1]oxa[4,7,10,14]tetraazacycloheptadecino[17,16-c]quinoline-9-carboxamide]",314,157,
"CC(C)C[C@H]1C(=O)N2CCCC[C@@H]2C(=O)N[C@H](Cc2ccccc2)COc2cnc3ccccc3c2C(=O)N[C@H](C(=O)NCCc2nc(-c3ccccc3OC(F)(F)F)no2)CC(=O)N1C [Example 87, (9S,13S,19aR,22R)-22-benzyl-13-isobutyl-12-methyl-7,11,14,20-tetraoxo-N-(2-(3-(2-(trifluoromethoxy)phenyl)-1,2,4-oxadiazol-5-yl)ethyl)-7,8,9,10,11,12,13,14,17,18,19,19a,20,21,22,23-hexadecahydro-16H-pyrido[2′,1′:6,7][1]oxa[4,7,10,14]tetraazacycloheptadecino[17,16-c]quinoline-9-carboxamide]",162,190,
"CC(C)C[C@H]1C(=O)N2CCCC[C@@H]2C(=O)N[C@H](Cc2ccccc2)COc2cnc3ccccc3c2C(=O)N[C@H](C(=O)NCCc2nnc(-c3ccccc3OC(F)(F)F)[nH]2)CC(=O)N1C [Example 88, (9S,13S,19aR,22R)-22-benzyl-13-isobutyl-12-methyl-7,11,14,20-tetraoxo-N-(2-(5-(2-(trifluoromethoxy)phenyl)-4H-1,2,4-triazol-3-yl)ethyl)-7,8,9,10,11,12,13,14,17,18,19,19a,20,21,22,23-hexadecahydro-16H-pyrido[2′,1′:6,7][1]oxa[4,7,10,14]tetraazacycloheptadecino[17,16-c]quinoline-9-carboxamide]",230,112,
"CC(C)C[C@H]1C(=O)N2CCCC[C@@H]2C(=O)N[C@H](Cc2ccccc2)COc2cnc3ccccc3c2C(=O)N[C@H](C(=O)NCCc2cc(C(C)(C)C)on2)CC(=O)N1C [Example 89, (9S,13S,19aR,22R)-22-benzyl-N-(2-(5-(tert-butyl)isoxazol-3-yl)ethyl)-13-isobutyl-12-methyl-7,11,14,20-tetraoxo-7,8,9,10,11,12,13,14,17,18,19,19a,20,21,22,23-hexadecahydro-16H-pyrido[2′,1′:6,7][1]oxa[4,7,10,14]tetraazacycloheptadecino[17,16-c]quinoline-9-carboxamide]",132,,262
"CC(C)C[C@H]1C(=O)N2CCCC[C@@H]2C(=O)N[C@H](Cc2ccccc2)COc2cnc3ccccc3c2C(=O)N[C@H](C(=O)NCCc2cc(C(C)(C)C)on2)CC(=O)N1C [Example 90, (9S,13S,19aS,22R)-22-benzyl-N-(2-(5-(tert-butyl)isoxazol-3-yl)ethyl)-13-isobutyl-12-methyl-7,11,14,20-tetraoxo-7,8,9,10,11,12,13,14,17,18,19,19a,20,21,22,23-hexadecahydro-16H-pyrido[2′,1′:6,7][1]oxa[4,7,10,14]tetraazacycloheptadecino[17,16-c]quinoline-9-carboxamide]",364,,129
